Reference: PubChem BioAssay (NCI)
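Cultured in 96-well plates, cells were exposed to test compound for 48 hours across five concentrations. The concentration for 50% growth inhibition is given as GI50. Definition used: TGI = concentration required for complete inhibition of growth.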

Key:
Assay in all cases: DTP human tumour cell line panel, 48 h
UO-31 renal = test system: UO-31 renal
DU-145 prostate = test system: DU-145 prostate
HT29 colon = test system: HT29 colon
SF-295 CNS = test system: SF-295 CNS
T-47D breast = test system: T-47D breast
SF-268 CNS = test system: SF-268 CNS
BT-549 breast = test system: BT-549 breast
UACC-257 melanoma = test system: UACC-257 melanoma
K-562 leukemia = test system: K-562 leukemia
RXF 393 renal = test system: RXF 393 renal

SMILES	TGI (UO-31 renal) [µM]	TGI (DU-145 prostate) [µM]	TGI (HT29 colon) [µM]	TGI (SF-295 CNS) [µM]	TGI (T-47D breast) [µM]	TGI (SF-268 CNS) [µM]	TGI (BT-549 breast) [µM]	TGI (UACC-257 melanoma) [µM]	TGI (K-562 leukemia) [µM]	TGI (RXF 393 renal) [µM]	GI50 (UO-31 renal) [µM]	GI50 (DU-145 prostate) [µM]	GI50 (HT29 colon) [µM]	GI50 (SF-295 CNS) [µM]	GI50 (T-47D breast) [µM]	GI50 (SF-268 CNS) [µM]	GI50 (BT-549 breast) [µM]	GI50 (UACC-257 melanoma) [µM]	GI50 (K-562 leukemia) [µM]	GI50 (RXF 393 renal) [µM]
O=C1C2=Nc3ccccc3C(O)N2c2ccccc21 (configuration not stated)	> 100	> 100	> 100	> 100	> 100	> 100	> 100	16.5	> 100											
C/C1=C/C2=CC(C)C[C@@H]2C(=O)[C@]2(C)C(=O)CC(C)(C)[C@H]2CC1=O (some centres not stated)	> 50	> 50	> 50	> 50	> 50	> 50	> 50	> 50	> 50											
CC1(C)CCc2cc3c(cc2O1)OCC1c2cc4c(cc2OC31)OCO4 (configuration not stated)	> 100		> 100	> 100		> 100		> 100	> 100	> 100										
O=C(c1cc2ccccc2o1)N(Cc1ccccc1)c1ccccc1	51.8		66	> 100		> 100		41.4	40	43										
CC(=O)c1cccc(NC(=O)C(=O)C(C2OC(=O)c3ccccc32)[N+](=O)[O-])c1 (configuration not stated)	> 100		> 100	> 100		> 100		> 100	> 100	> 100										
Cc1c(C(=O)C/C(=N/NC(=O)C[n+]2ccccc2)C(=O)Nc2ccccc2)[n+](=O)c2ccccc2n1O	> 100		> 100	> 100		> 100		> 100	> 100	> 100										
COc1c(NC(C)=O)cc(C)cc1NC(C)=O				> 100		> 100		> 100	> 100	> 100										
COC(=O)c1ccc(NC(=O)Nc2ccc3oc(=O)c4ccccc4c3c2)cc1	> 100	> 100	> 100	> 100	> 100	71.2	> 100	> 100	> 100		62.5	56.1	28	55.9	> 100	26.2	28.1	60.7	56.2	
Cc1cc(=O)[nH]o1	> 100		> 100	> 100		> 100	> 100	> 100	> 100	> 100										
CC(=O)O[C@]1(C)OC(=O)[C@@H](C)N1[N+](=O)[O-]	> 100		> 100	> 100				> 100	> 100	> 100										
OCC1OC(OCC(O)C(O)C(O)C(/C=N/Nc2ccccc2)=N/Nc2ccccc2)C(O)C(O)C1O (configuration not stated)	> 100	> 100	> 100	> 100	56.9	> 100	> 100	> 100												
CCCC[N+](CCCC)=c1ccc2nc3c(C)cc(N(CC)CC)cc3sc-2c1	0.804	1.47				1.78	1.73			1.41	0.134	0.307				0.339	0.225			0.322
COc1ccc2c(c1)[n+]([O-])c(-c1ccccc1)c(N)[n+]2[O-]	> 100		> 100	> 100		> 100		71.6	> 100											
COC(=O)C1=C(C(=O)OC)C23CC1C1C(C(=O)OC)=C(C(=O)OC)C12C1C=CC3C2C(=O)OC(=O)C21 (configuration not stated)	> 100		> 100	> 100		> 100		> 100	> 100	> 100										
O=c1cc(N2CCNCC2)oc2c(-c3ccccc3)cccc12	> 100	> 100	> 100	> 100	> 100	> 100	> 100	29.1	47		24	59	24.8	39.8	26.6	46.3	> 100	13.6	13.1	
O=C1c2ccccc2C(=O)c2c(NCCNCCO)ccc(O)c21	5.58		10.2	15.8		13.1		13.5	> 100	7.92										
Cc1cc(C2=NNC(=O)Cc3cc4c(cc32)OCCO4)cc(C)c1N	> 100	> 100	> 100	2.87	> 100	> 100	> 100				3.83	3.84	0.746	0.47	4.41	4.21	3.36			
CN[C@@H](C)[C@@H](N)c1ccccc1	> 100		> 100	> 100				> 100	> 100	> 100										
C[C@]12CCc3nonc3C1CC[C@@H]1C2CC[C@]2(C)NC(=O)CCC12 (some centres not stated)	> 100		> 100	> 100		> 100		> 100	> 100	> 100										
Oc1ccc(O)c(-c2cc(-c3ccccc3)nn2-c2ccccc2)c1	> 100		> 100	> 100	98.4	64.8	33.7	52.1	> 100	> 100	38.6		73.9	28.5	19.6	16.4	13.4	18	21.7	31.3
COc1ccc2nc3cc(Cl)ccc3c(N3CCN(c4ccnc(N5CCOCC5)n4)CC3)c2c1	> 100	> 100	16.7	> 100		> 100	> 100	> 100	> 100	16.1	> 100	17.9	2.9	> 100		9.74	> 100	> 100	2.91	2.68
